Values belong to the compound of their own block, whether it stands above or below them.
Experiments:
[1] = target: T1, MAP kinase-interacting serine/threonine-protein kinase 1 (Homo sapiens, UniProt Q9BUB5); experiment: Inhibition of inactive form of MNK1 (unknown origin)
[2] = target: T1, MAP kinase-interacting serine/threonine-protein kinase 1; experiment: Inhibition of Mnk1 (unknown origin)
[3] = target: T2, MAP kinase-interacting serine/threonine-protein kinase 2 (Homo sapiens, UniProt Q9HBH9); experiment: Inhibition of Mnk2 (unknown origin)
Target sequence in this assay (Q9HBH9 whole entry): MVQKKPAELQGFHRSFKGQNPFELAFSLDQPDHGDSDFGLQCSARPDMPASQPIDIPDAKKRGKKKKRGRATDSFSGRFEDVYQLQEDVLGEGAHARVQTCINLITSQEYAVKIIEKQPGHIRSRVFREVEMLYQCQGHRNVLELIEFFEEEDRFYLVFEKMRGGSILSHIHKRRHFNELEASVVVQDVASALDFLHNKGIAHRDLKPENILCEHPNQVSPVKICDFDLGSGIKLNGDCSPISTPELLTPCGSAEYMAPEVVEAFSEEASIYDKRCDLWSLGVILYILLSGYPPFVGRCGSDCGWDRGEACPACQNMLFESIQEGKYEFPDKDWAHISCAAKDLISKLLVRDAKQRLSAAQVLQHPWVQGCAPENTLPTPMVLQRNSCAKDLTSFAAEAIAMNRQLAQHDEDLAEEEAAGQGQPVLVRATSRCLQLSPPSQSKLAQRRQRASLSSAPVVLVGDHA

[4] = target: T1, MAP kinase-interacting serine/threonine-protein kinase 1; experiment: Inhibition of Mnk1 (unknown origin) by ADP-Glo assay
[5] = target: T2, MAP kinase-interacting serine/threonine-protein kinase 2; experiment: Inhibition of Mnk2 (unknown origin) by ADP-Glo assay
Target sequence in this assay (Q9HBH9 whole entry): as above

[6] = target: T1, MAP kinase-interacting serine/threonine-protein kinase 1; experiment: Binding affinity to Mnk1 (unknown origin)
[7] = target: T2, MAP kinase-interacting serine/threonine-protein kinase 2; experiment: Binding affinity to Mnk2 (unknown origin)
Target sequence in this assay (Q9HBH9 whole entry): as above

MV4-11 [8] = experiment: Growth inhibition of human MV4-11 cells measured after 72 hrs; format: functional
[9] = target: T1, MAP kinase-interacting serine/threonine-protein kinase 1; experiment: Inhibition of Mnk1 (unknown origin) using eIF4E-derived (D 202 TATKSGSTTKNR 214) peptide as substrate incubated for 90 mins by IMAP TR-FRET assay
[10] = target: T2, MAP kinase-interacting serine/threonine-protein kinase 2; experiment: Inhibition of His-tagged Mnk2 (unknown origin) using eIF4E-derived (D 202 TATKSGSTTKNR 214) peptide as substrate incubated for 90 mins by IMAP TR-FRET assay
Target sequence in this assay (Q9HBH9 whole entry): as above

[11] = Clearance in female NMRI-nu/nu mouse; format: ADME; details: in vivo
[12] = Oral bioavailability in male RH:Foxn1 nude rat; format: ADME, organism-based; details: in vivo
[13] = Clearance in male RH:Foxn1 nude rat; format: ADME; details: in vivo
[14] = Intermediate elimination half life in male RH:Foxn1 nude rat; format: ADME; details: in vivo, read-out: beta t1/2 (converted)
[15] = Oral bioavailability in female NMRI-nu/nu mouse; format: ADME, organism-based; details: in vivo
[16] = Volume of distribution at steady state in female NMRI-nu/nu mouse; format: ADME; details: in vivo, read-out: Vdss
[17] = Volume of distribution at steady state in male RH:Foxn1 nude rat; format: ADME; details: in vivo, read-out: Vdss
[18] = Antitumor activity against human Lu7462 patient-derived NSCLC cells xenografted in female NMRI-nu/nu mouse assessed as T/C ratio at 200 mg/kg, po, qd for 94 days; format: functional; details: time 94 day
[19] = Intermediate elimination half life in female NMRI-nu/nu mouse; format: ADME; details: in vivo, read-out: beta t1/2 (converted)
[20] = target: T2, MAP kinase-interacting serine/threonine-protein kinase 2; experiment: Inhibition of MNK2 (unknown origin) at 123 nM
Target sequence in this assay (Q9HBH9 whole entry, looked up): as the sequence (Q9HBH9 whole entry) above

MOLM-13 = experiment: Antiproliferative activity against human MOLM-13 cells; format: functional
A2780 = experiment: Antiproliferative activity against human A2780 cells; format: functional
SK-OV-3 = experiment: Antiproliferative activity against human SK-OV-3 cells; format: functional
PC-3 = experiment: Antiproliferative activity against human PC-3 cells; format: functional
MV4-11 [21] = experiment: Induction of cell cycle arrest in human MV4-11 cells assessed as increase in sub G1/G2 DNA content at 20 uM (reference value: 64%); format: functional
[22] = target: T2, MAP kinase-interacting serine/threonine-protein kinase 2; experiment: Binding affinity to His-tagged Mnk2 (unknown origin) using D 202 TATKSGSTTKNR 214 as substrate by TR-FRET assay
Target sequence in this assay (Q9HBH9 whole entry): as above

MV4-11 [23] = experiment: Growth inhibition of human MV4-11 cells incubated for 72 hrs by multilabel plate reader method; format: functional
[24] = Growth inhibition of human Acute myeloid leukemic cells incubated for 72 hrs by multilabel plate reader method; format: functional; details: Acute myeloid leukemic cell
[25] = target: T1, MAP kinase-interacting serine/threonine-protein kinase 1; experiment: Inhibition of FLAG-tagged Mnk1 (unknown origin) transfected into HEK293 cells incubated for 30 mins followed by ATP addition measured after 30 mins by Western blotting analysis; format: cell-based
[26] = target: Tyrosine-protein kinase BTK (Homo sapiens, UniProt Q06187); experiment: Inhibition of FLAG-tagged BTK (unknown origin) transfected into HEK293T cells incubated for 30 mins followed by ATP addition measured after 20 mins by Western blotting analysis; format: cell-based, HEK293
[27] = target: T2, MAP kinase-interacting serine/threonine-protein kinase 2; experiment: Inhibition of FLAG-tagged Mnk2 (unknown origin) transfected into HEK293 cells incubated for 30 mins followed by ATP addition measured after 30 mins by Western blotting analysis; format: cell-based
Target sequence in this assay (Q9HBH9 whole entry): as above

[28] = target: T3, Tyrosine-protein kinase JAK3 (Homo sapiens, UniProt P52333); experiment: Inhibition of JAK3 (unknown origin)
T3 sequence (P52333 whole entry): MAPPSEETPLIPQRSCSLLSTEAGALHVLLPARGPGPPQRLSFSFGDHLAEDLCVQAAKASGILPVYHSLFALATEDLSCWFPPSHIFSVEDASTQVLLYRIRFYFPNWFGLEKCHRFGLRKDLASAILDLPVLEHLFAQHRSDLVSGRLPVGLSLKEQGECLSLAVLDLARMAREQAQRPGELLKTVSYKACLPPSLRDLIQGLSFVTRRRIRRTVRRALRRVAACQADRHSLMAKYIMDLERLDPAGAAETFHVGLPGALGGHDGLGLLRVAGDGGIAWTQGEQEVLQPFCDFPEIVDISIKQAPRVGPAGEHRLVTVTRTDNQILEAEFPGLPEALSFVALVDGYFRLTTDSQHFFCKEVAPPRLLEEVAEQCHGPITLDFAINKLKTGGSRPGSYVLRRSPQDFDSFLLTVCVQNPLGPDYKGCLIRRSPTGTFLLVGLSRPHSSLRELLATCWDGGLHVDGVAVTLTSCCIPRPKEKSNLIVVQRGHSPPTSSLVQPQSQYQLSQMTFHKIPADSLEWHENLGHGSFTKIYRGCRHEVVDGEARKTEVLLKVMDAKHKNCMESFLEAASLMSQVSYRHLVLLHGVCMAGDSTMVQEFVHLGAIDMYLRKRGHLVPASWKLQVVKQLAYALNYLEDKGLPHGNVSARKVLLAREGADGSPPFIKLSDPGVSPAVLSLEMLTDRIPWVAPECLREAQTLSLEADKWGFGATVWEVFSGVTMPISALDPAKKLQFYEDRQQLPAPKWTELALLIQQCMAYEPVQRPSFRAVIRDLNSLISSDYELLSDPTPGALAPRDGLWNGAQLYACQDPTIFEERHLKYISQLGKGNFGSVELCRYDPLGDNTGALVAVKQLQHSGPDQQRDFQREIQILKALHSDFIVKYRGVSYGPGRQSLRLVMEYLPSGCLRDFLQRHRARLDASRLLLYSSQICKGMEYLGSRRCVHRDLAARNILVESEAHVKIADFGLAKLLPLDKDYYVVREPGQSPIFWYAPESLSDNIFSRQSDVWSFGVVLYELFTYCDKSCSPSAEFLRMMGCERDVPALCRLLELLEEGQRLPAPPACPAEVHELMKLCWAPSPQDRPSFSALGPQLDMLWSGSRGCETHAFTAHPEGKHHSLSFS

T1 sequence (Q9BUB5 whole entry): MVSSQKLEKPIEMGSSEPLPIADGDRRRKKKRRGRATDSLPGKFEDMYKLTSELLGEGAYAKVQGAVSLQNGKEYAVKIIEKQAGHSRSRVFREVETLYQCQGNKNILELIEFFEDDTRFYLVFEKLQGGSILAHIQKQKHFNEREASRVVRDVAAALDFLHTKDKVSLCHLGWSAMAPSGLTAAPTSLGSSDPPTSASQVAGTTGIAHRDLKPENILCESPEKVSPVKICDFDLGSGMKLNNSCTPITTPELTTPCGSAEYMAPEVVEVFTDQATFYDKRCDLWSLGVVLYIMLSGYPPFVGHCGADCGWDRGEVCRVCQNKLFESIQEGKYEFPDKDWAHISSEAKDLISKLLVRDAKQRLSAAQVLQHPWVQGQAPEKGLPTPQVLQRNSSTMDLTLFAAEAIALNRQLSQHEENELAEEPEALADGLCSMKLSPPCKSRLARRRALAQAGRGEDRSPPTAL
Sequence of Tyrosine-protein kinase BTK (Q06187 whole entry): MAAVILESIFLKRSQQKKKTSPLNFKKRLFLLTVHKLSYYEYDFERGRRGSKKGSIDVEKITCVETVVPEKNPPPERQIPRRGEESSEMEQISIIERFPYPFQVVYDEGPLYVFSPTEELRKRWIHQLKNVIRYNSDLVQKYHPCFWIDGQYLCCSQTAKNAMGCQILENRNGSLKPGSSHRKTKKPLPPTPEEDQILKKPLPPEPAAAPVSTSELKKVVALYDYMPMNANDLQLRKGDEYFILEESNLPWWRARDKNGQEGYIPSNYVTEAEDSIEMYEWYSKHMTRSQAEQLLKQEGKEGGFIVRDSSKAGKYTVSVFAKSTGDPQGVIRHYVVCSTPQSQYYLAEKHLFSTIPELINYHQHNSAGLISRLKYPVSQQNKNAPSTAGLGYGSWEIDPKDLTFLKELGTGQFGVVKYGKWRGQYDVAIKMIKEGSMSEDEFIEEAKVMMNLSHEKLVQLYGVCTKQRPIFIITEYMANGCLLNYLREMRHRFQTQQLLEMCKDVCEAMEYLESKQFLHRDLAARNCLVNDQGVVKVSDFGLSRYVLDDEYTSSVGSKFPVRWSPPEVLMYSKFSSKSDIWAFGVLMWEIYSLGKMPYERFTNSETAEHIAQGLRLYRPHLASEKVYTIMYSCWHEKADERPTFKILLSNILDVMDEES

SMILES: CN1CCC(C(=O)Nc2ncc(-c3ccccc3)s2)CC1
- IC50 [1]: 21 nM

SMILES: Cn1ccc2ncnc(Nc3ccc(F)cc3OC3CCCC3)c21
- IC50 ([2]; read-out: pIC50 (converted)): 126 nM
- IC50 [3]: 31.6 nM

SMILES: COc1cc(N=S2(=O)CCC2)cc2ncnc(Nc3cccnc3O[C@H]3COC[C@H]3O)c12
- IC50 [2]: 104 nM

SMILES: CN(Cc1ccon1)Cc1cc(-c2ccnc3cc(Cl)ccc23)ccc1O
- IC50 [4]: 4700 nM
- IC50 [5]: 2600 nM

SMILES: CC(C)Oc1cc(C#N)ccc1Nc1ncnc2ccn(C)c12
- IC50 ([2]; read-out: pIC50 (converted)): 50.1 nM
- IC50 [3]: 25.1 nM

SMILES: COc1ncc(C)cc1Nc1ncnc2[nH]ccc12
- Ki [6]: 740 nM
- Ki [7]: 1320 nM
- GI50 (MV4-11 [8]): 4640 nM

SMILES: CC(C)Oc1cc(F)ccc1Nc1ncnc2cc(C(=O)NCCCN(C)C)n(C)c12
- IC50 ([2]; read-out: pIC50 (converted)): 50.1 nM
- IC50 [3]: 39.8 nM

SMILES: Fc1ccc(Nc2ncnc3[nH]ccc23)nc1
- Ki [6]: 1080 nM
- Ki [7]: 430 nM
- GI50 (MV4-11 [8]): 8190 nM

SMILES: Cn1ccc2ncnc(Nc3ccc(F)cc3OC(CF)CF)c21
- IC50 ([2]; read-out: pIC50 (converted)): 158 nM
- IC50 [3]: 50.1 nM

SMILES: COc1cc(N=S(C)(=O)C(C)(C)C)cc2ncnc(Nc3ccc(F)cc3O[C@H]3COC[C@H]3O)c12 (stereo partly drawn)
- IC50 [2]: 329 nM

SMILES: CO[C@@H]1COC[C@@H]1Oc1cc(F)ccc1Nc1ncnc2cc(N=S(C)(C)=O)cc(C)c12
- IC50 [2]: 80 nM

SMILES: CC(C)Oc1cc(F)ccc1Nc1ncnc2cc(C(=O)NCC3CCNCC3)n(C)c12
- IC50 ([2]; read-out: pIC50 (converted)): 39.8 nM
- IC50 [3]: 39.8 nM

SMILES: C[C@H](CN)Oc1ccc2ncc(-c3cc4ccccc4o3)n2n1
- clearance [11]: 39 mL/min/kg
- bioavailability [12]: 78%
- clearance [13]: 6.83 mL/min/kg
- half-life [14]: 1.2 h
- bioavailability [15]: 71%
- Vd [16]: 6 L/kg
- Vd [17]: 0.87 L/kg
- T/C [18]: 0.33
- half-life [19]: 1.2 h

SMILES: Cc1ccc(C(=O)Nc2ccc(CN3CCN(C)CC3)c(C(F)(F)F)c2)cc1C#Cc1cnc2cccnn12
- inhibition [20]: 32%

SMILES: Fc1ccc2c(c1)CCN2c1ncnc2cc[nH]c12
- IC50 ([2]; read-out: pIC50 (converted)): 39.8 nM
- IC50 [3]: 31.6 nM

SMILES: O=C1NC2(CCCCC2)n2c1c(Cl)cc(Nc1ccncn1)c2=O
- GI50 (MOLM-13): < 10000 nM
- GI50 (A2780): < 10000 nM
- GI50 (SK-OV-3): < 10000 nM
- GI50 (PC-3): < 10000 nM

SMILES: Nc1cccc2c1cnn2-c1ncnc2[nH]ccc12
- Activity (MV4-11 [21]): 92%

SMILES: Cc1ncc(C(=O)Nc2ccc(CN3CCN(C)CC3)c(C(F)(F)F)c2)cc1C#Cc1cnc2cccnn12
- inhibition [20]: 51%

SMILES: CO[C@@H]1COC[C@@H]1Oc1cc(F)ccc1Nc1ncnc2cc(N=S3(=O)CCCC3)cc(Cl)c12
- IC50 [2]: 45 nM

SMILES: O=S1(=Nc2cc(Cl)c3c(Nc4ccc(F)cc4O[C@H]4COC[C@@H]4O)ncnc3c2)CCC1
- IC50 [2]: 18 nM

SMILES: Cn1ccc2ncnc(Nc3ccc(F)cc3O[C@@H]3CCCOC3)c21
- IC50 ([2]; read-out: pIC50 (converted)): 63.1 nM
- IC50 [3]: 31.6 nM

SMILES: Cc1c(-c2ccnc(Nc3ccccc3OC(F)F)n2)sc(=O)n1C
- Ki [22]: 120 nM
- GI50 (MV4-11 [23]): 780 nM
- GI50 [24]: 880 nM

SMILES: C=CC(=O)Nc1cc(-n2c(=O)ccc3cnc4ccc(-c5cn[nH]c5)cc4c32)ccc1C
- IC50 [25]: 107 nM
- IC50 [26]: 9.4 nM
- IC50 [27]: 26 nM
- IC50 [28]: 55.7 nM

Results, then the compound that gave them:

- IC50 ([2]; read-out: pIC50 (converted)): 3.16 nM
- IC50 [3]: 3.16 nM
SMILES: O=C(NCC1CCNCC1)c1nc2c(N3CCc4cc(Cl)ccc43)ncnc2s1

- IC50 ([2]; read-out: pIC50 (converted)): 6.31 nM
- IC50 [3]: 3.98 nM
SMILES: CN(C)CCCNC(=O)c1nc2c(N3CC(C)(C)c4ccccc43)ncnc2s1

- IC50 ([2]; read-out: pIC50 (converted)): 50.1 nM
- IC50 [3]: 50.1 nM
SMILES: CC(C)Oc1cc(F)ccc1Nc1ncnc2sc(C(=O)NCC3CCNCC3)nc12

- IC50 [9]: 147000 nM
- IC50 [10]: 50000 nM
SMILES: Cc1c(C(=O)O)sc2ncnc(Nc3ccc(F)cc3OC(CF)CF)c12

- IC50 ([2]; read-out: pIC50 (converted)): 50.1 nM
- IC50 [3]: 31.6 nM
SMILES: CNC(=O)c1nc2c(Nc3ccc(F)cc3OC(C)C)ncnc2s1

- IC50 ([2]; read-out: pIC50 (converted)): 3.16 nM
- IC50 [3]: 2.51 nM
SMILES: CC1(C)CN(c2ncnc3sc(C(=O)NCC4CCNCC4)nc23)c2ccccc21

- IC50 ([2]; read-out: pIC50 (converted)): 12.6 nM
- IC50 [3]: 12.6 nM
SMILES: CN(C)CCCNC(=O)c1cc2ncnc(N3CCc4cc(F)ccc43)c2n1C

- IC50 ([2]; read-out: pIC50 (converted)): 50.1 nM
- IC50 [3]: 31.6 nM
SMILES: CC(C)Oc1cc(F)ccc1Nc1ncnc2sc(C(=O)NCCN3CCNCC3)nc12

- IC50 ([2]; read-out: pIC50 (converted)): 5.01 nM
- IC50 [3]: 3.98 nM
SMILES: O=C(NCC1CCNCC1)c1nc2c(N3CCc4cc(F)ccc43)ncnc2s1

- IC50 ([2]; read-out: pIC50 (converted)): 10 nM
- IC50 [3]: 7.94 nM
SMILES: CN(C)CCCNC(=O)c1nc2c(N3CCc4ccccc43)ncnc2s1

- IC50 ([2]; read-out: pIC50 (converted)): 2.51 nM
- IC50 [3]: 2 nM
SMILES: CN(C)CCCNC(=O)c1nc2c(N3CCc4cc(F)ccc43)ncnc2s1

— ChEMBL document CHEMBL5136973, “Update on the Development of MNK Inhibitors as Therapeutic Agents” (J Med Chem, 2022)
